The values that follow come from paper PMC3364162 (Journal of Medicinal Chemistry, 2012).

The Papp is a coefficient for how fast a substance crosses the barrier. Read a low Papp as slow passage. By Kd is commonly meant the concentration at which binding is half-saturated.

B1: Vitamin D receptor (protein)
chain: MEAMAASTSLPDPGDFDRNVPRICGVCGDRATGFHFNAMTCEGCKGFFRRSMKRKALFTCPFNGDCRITKDNRRHCQACRLKRCVDIGMMKEFILTDEEVQRKREMILKRKEEEALKDSLRPKLSEEQQRIIAILLDAHHKTYDPTYSDFCQFRPPVRVNDGGGSHPSRPNSRHTPSFSGDSSSSCSDHCITSSDMMDSSSFSNLDLSEEDSDDPSVTLELSQLSMLPHLADLVSYSIQKVIGFAKMIPGFRDLTSEDQIVLLKSSAIEVIMLRSNESFTMDDMSWTCGNQDYKYRVSDVTKAGHSLELIEPLIKFQVGLKKLNLHEEEHVLLMAICIVSPDRPGVQDAALIEAIQDRLSNTLQTYIRCRHPPPGSHLLYAKMIQKLADLRSLNEEHSKQYRCLSFQPECSMKLTPLVLEVFGNEIS

The first series concerns HEK293T cells. The experiment in a line: Toxicity by CellTiter-Glo. In kind it is cell-based, human. The following applies: Conc. 62.5 μM. (In general: ATP-based viability assays read luminescence as a measure of living cells.)
Take `COc1ccc(C(Nc2ccccn2)c2c(C)[nH]c3ccccc23)cc1` (stereo not shown) [compound 11]: the “Toxicity (%)” value came to 100%.
On the same count and under the same terms, the figure for `Cc1ccc(C(Nc2ccccn2)c2c(C)[nH]c3ccccc23)cc1` (stereo not shown) [compound 12] is 90%; for `COc1cccc(C(Nc2ccccn2)c2c(C)[nH]c3ccccc23)c1` (stereo not shown) [compound 13] it is 60%; for `Cc1[nH]c2ccccc2c1C(Nc1ccccn1)c1ccc(F)cc1` (stereo not shown) [compound 16] it is 100%.
For the molecule `Cc1[nH]c2ccccc2c1C(Nc1ccccn1)c1cccc(Cl)c1` (stereo not shown) [compound 18], the “Toxicity (%)” value is on record as 100%.
Still for that read-out and setting: the figure for `Cc1ccc(S(=O)(=O)ON2C(=O)c3ccccc3C2=O)cc1` [compound 20] is 50%.
As to `COc1ccc(OC)c(S(=O)(=O)ON2C(=O)c3ccccc3C2=O)c1` [compound 21], the “Toxicity (%)” value was found to be 50%.
In the case of `Cc1c(C=O)c(C(=O)O)c(C)n1Cc1ccc(Cl)cc1` [compound 23], the “Toxicity (%)” value is reported as 20%.
Still for that read-out and setting: the figure for `COCC(=O)Oc1c(Sc2ccc(Cl)cc2)c(C)nn1-c1ccccc1` [compound 26] is 0%.

System in a further series: not listed separately
The series is described as follows: in vitro. To be noted: PAMPA, pH 7.4.
`Cc1[nH]c2ccccc2c1C(Nc1ccccc1)c1ccc(CCCO)cc1` (stereo not shown) [30i] gave a Papp of 1.48 nm/s.
On the same count and under the same terms, in the case of `COC(=O)c1ccc2c(c1)C(C)(C)C(/C=C/c1ccc(OC)cc1)=[N+]2C` [compound 1] it was 0.138 nm/s.
Still for that read-out and setting: the figure for `COc1ccc(/C=C/C2=[N+](C)c3ccc(OC)cc3C2(C)C)cc1` [compound 2] is 2.82 nm/s.
Still for that read-out and setting: the figure for `CCOc1ccc(/C=C/C2=[N+](C)c3ccc(C(=O)OC)cc3C2(C)C)cc1` [compound 3] is 0.0603 nm/s; for `COC(=O)c1ccc(/C=C/C2=[N+](C)c3ccc(OC)cc3C2(C)C)cc1` [compound 4] it is 0.117 nm/s; for `COC(=O)c1ccc2c(c1)C(C)(C)C(/C=C/c1ccc(O)cc1)=[N+]2C` [compound 5] it is 0.2 nm/s.
`CCCS(=O)(=O)c1oc(-c2cccs2)nc1S(=O)(=O)c1ccc(F)cc1` [compound 7] gave a Papp of 2.51 nm/s.
In the case of `CCS(=O)(=O)c1oc(-c2cccs2)nc1S(=O)(=O)c1ccccc1` [compound 8], the Papp is 2.14 nm/s.
On to `CC(C)CS(=O)(=O)c1oc(-c2cccs2)nc1S(=O)(=O)c1ccc(F)cc1` [compound 9], for which the apparent permeability coefficient (Papp) is 1.66 nm/s.
Still for that read-out and setting: in the case of `CC(C)S(=O)(=O)c1oc(-c2cccs2)nc1S(=O)(=O)c1ccccc1` [compound 10] it was 4.37 nm/s; in that of `Cc1ccc(S(=O)(=O)ON2C(=O)c3ccccc3C2=O)cc1` [compound 20], 0.0195 nm/s.
Still for that read-out and setting: in the case of `COc1ccc(OC)c(S(=O)(=O)ON2C(=O)c3ccccc3C2=O)c1` [compound 21] it was 0.145 nm/s; in that of `CCc1ccc(S(=O)(=O)ON2C(=O)c3ccccc3C2=O)cc1` [compound 22], 0.148 nm/s; in that of `Cc1c(C=O)c(C(=O)O)c(C)n1Cc1ccc(Cl)cc1` [compound 23], 0.0525 nm/s.
Same read-out and setting: the figure for `O=Cc1nc2ccccc2n1Cc1ccc2ccccc2c1` [compound 24] is 5.13 nm/s; for `O=Cc1nc2ccccc2n1Cc1ccc(Cl)cc1Cl` [compound 25] it is 3.02 nm/s.
On to `COCC(=O)Oc1c(Sc2ccc(Cl)cc2)c(C)nn1-c1ccccc1` [compound 26], for which the Papp is 0.331 nm/s.
Still for that read-out and setting: in the case of `Nc1nc2ccc(S(=O)(=O)N3CCCCC3)cc2s1` [compound 27] it was 0.525 nm/s; in that of `CCCCNC(=O)Cn1sc2nc(C)cc(C)c2c1=O` [compound 28], 1.66 nm/s.
Same read-out and setting: the figure for `Cc1cccc(N2COc3ccc4ccccc4c3C2)c1` [compound 29] is 11.2 nm/s.

The next series relates to DU145 cells. The experiment in a line: Cytotoxicity in DU145 cells. In kind it is cell-based, human.
Conditions: not given
Turning to `Cc1[nH]c2ccccc2c1C(Nc1ccc(Cl)cc1)c1ccccc1Cl` (stereo not shown) [31b], the “Concentration above which increased cytotoxicity was observed” value is recorded as “higher than 20 μM”.

In another series the target is T1, SRC2-2 coactivator peptide SRC2-2 (Homo sapiens, UniProt Q15596).
T1 chain: KHKILHRLLQDSS
Assay: not given
Conditions: not given
B1 came in with a Kd of 1.7 µM.
